Legend:
MIA-1 cells = experiment: Ganciclovir dose response curve, untransfected cells, MTS assay; assay type: cell-based, human; details: untransfected MIA-1 cells, five days
Method: (§1) PANC-1, CAPAN-1 MIA-1 and A549 cells were plated into a ninety-six well plate at a density of 5,000 cells per well and given between 0 to 500 μg/ml of GCV to determine a dose response curve to GCV alone. The cells were treated for five days and cell viability was ascertained with an MTS assay. Results were plotted on a graph as OD 490 nm vs. GCV concentration.

A549 cells = experiment: as above; assay type: cell-based, human; details: five days
Method: as §1

CAPAN-1 cells = experiment: as above; assay type: cell-based, human; details: untransfected CAPAN-1 cells
Method: as §1

PANC-1 cells = experiment: as above; assay type: cell-based, human; details: untransfected PANC-1 cells
Method: as §1

NIT-1 cell tumors = experiment: Treatment of β-cell adenomas (insulinomas) in vivo, ICR/scid mice injected IP with NIT-1 cells; details: ICR/scid mice with NIT-1 cells; genes via liposomes IP day 31, GCV 40 mg/kg IP seven days
Method: To estimate tumor growth blood glucose was measured from the tail vein using a glucometer every other day.
Twenty-seven female ICR/scid mice, age 6-10 weeks old underwent intraperitoneal injections of 5×10^6 NIT-1 cells and nine female ICR/scid mice, age 6-10 weeks old underwent intraperitoneal injections of PBS. At day 31, the mice were randomized to receive either the RIP-tk gene, the RIPlacZ gene, or nothing. The RIP-lac-Z construct served both as a control and to localize gene expression. The genes were delivered via liposomes IP (liposomes provided by Dr. Nancy Smyth-Templeton Center for Gene Therapy and Department of Cell Biology, Baylor College of Medicine) and mixed as described (Smyth-Templeton N, et al., 15 Nature Biotechnology 647-652 (1997)). Six mice were randomized to receive the RIP-tk gene followed by seven days of GCV (40 mg/kg IP). Six mice were randomized to receive the RIP-lacZ gene followed by seven days of GVC (40 mg/kg IP). Six mice were randomized to receive PBS followed by seven days of GCV (40 mg/kg IP). Six mice that were inoculated with NIT-1 cells were randomized to receive seven days of PBS. […]
In another murine hypoglycemic tumor model, 5×10^6 NIT-1 cells (or PBS) were injected intraperitoneally (IP) into ICR/scid mice (n=12 per group). […] Blood glucose values, animal survival, and blue cells after X-gal staining were recorded.

F9 cells = experiment: Ganciclovir dose response curve, untransfected cells, MTS assay; assay type: cell-based, mouse; details: n=8
Method: (§2) Dose response curves with GCV for untransfected NIT-1 and F9 (control) cells were performed prior to cytoxicity studies with genetic constructs. NIT-1 cells were plated into a ninety-six well plate at a density of 5,000 cells per well and treated with GCV (0.1 to 2.5 μg/ml) to determine a dose response curve to GCV alone. The cells were treated daily for five days and cell viability was ascertained with an MTS assay. […] The GCV toxicity dose response curve for F9 cells resembled other cell lines (FIG. I B). […] Note that at concentrations of GCV 0.25 μg/ml and higher a significant decrease in cell survival is observed, n=8, *p<0.05, Unpaired Student t-test.

NIT-1 cells = experiment: as above; assay type: cell-based, mouse; details: untransfected NIT-1 cells
Method: as §2

PANC-1 tumors = experiment: Treatment of human ductal pancreatic adenocarcinoma tumors in vivo, ICR/scid mice injected ip with PANC-1 cells; set-up: species or system mouse; details: PANC-1 tumors in ICR/scid mice, with GCV 40 mg/kg ip 7 days
Method: The effectiveness of RIPlacZ and RIP-tk gene constructs against PANC-1 was then studied in vivo using a SCID mouse model. SCID mice are immunodeficient and will not reject a human pancreatic cancer cell line. PANC-1 cells were injected intraperitoneally and tumors were visible by day 24. Once the model was established in the laboratory, the mice were treated with the gene therapy beginning at day 24 post-tumor-injection.
Six mice received seven days of PBS IP.
Three additional mice inoculated with PANC-1 cells received the RIPlacZ gene and were sacrificed thirty-six hours later.
Additional injected mice with tumors (n=3) received RIPlacZ and their tissues were fixed and stained with X-gal. Study endpoints consisted of monitoring tumor size and the presence of blue cells after X-gal staining.

Question: Nc1nc(O)c2ncn(COC(CO)CO)c2n1 [GCV, Ganciclovir] was tested. Which “GCV dosage significantly decreasing cell OD 490” value (MIA-1 cells) did it give?
Answer: greater than 20 μg/ml

Question: What about the “GCV dosage significantly decreasing cell OD 490” value (A549 cells) of the same compound?
Answer: greater than 50 μg/ml

Question: What about the “maximum dose of GCV one can use to treat cells in culture” value (from here on “maximum dose of GCV one can use”) (CAPAN-1 cells) of the same compound?
Answer: 15 µg/mL

Question: What about the “GCV dosage significantly decreasing cell OD 490” value (CAPAN-1 cells; five days) of the same compound?
Answer: greater than 20 μg/ml

Question: And the “maximum dose of GCV one can use” value (PANC-1 cells)?
Answer: 20 µg/mL

Question: And the “GCV dosage significantly decreasing cell OD 490” value (PANC-1 cells; five days, n=8)?
Answer: greater than 50 μg/ml

Question: And the blood glucose levels (NIT-1 cell tumors)?
Answer: rapid decline in blood glucose levels

Question: And the “GCV toxicity dose response (in words)” value (F9 cells)?
Answer: resembles that of other published cell lines

Question: And the “maximum dose of GCV one can use” value (NIT-1 cells)?
Answer: 0.20 µg/mL

Question: And the “tumor burden / tumor size (in words)” value (PANC-1 tumors)?
Answer: developed large peri-pancreatic intraperitoneal tumors

Reference: patent US6716824B1, “Treatment of pancreatic adenocarcinoma by cytotoxic gene therapy” (priority 1999, dated 2004)
